Results as given in patent US20240382561A1, “GLUCOREGULATORY COMPOUND, COMPOSITION AND USES THEREOF” (THE HONG KONG POLYTECHNIC UNIVERSITY, priority 2021, published 2024).

Experiments:
3T3-L1 adipocytes = assay: 2-NBDG glucose uptake in 3T3-L1 adipocytes; format: cell-based; details: inhibitor 1 μM; for effect of co-treatment on CYSTM1-induced glucose uptake: 3T3-L1 cells, CYSTM1 1 μM
Method: (§1) To determine whether CYSTM1 can increase glucose uptake in adipocytes, in vitro assays of 2-NBDG uptake in response to CYSTM1 treatment and potential inhibitors in 3T3-L1 adipocytes and mouse primary adipocytes were performed. 3T3-L1 preadipocytes were maintained in Dulbecco's modified Eagle's medium (DMEM) supplemented with 10% fetal bovine serum. Two days after confluence, 3T3-L1 cells were induced to differentiation using the standard adipogenic cocktail (0.5 mM IBMX, 1 μM dexamethasone and 10 μg/ml insulin) that was applied for 4 days and followed by 10 μg/ml insulin treatment for additional 4 days. The culture medium was changed every other day. The differentiated cells were maintained in normal serum containing DMEM. Mouse primary adipocytes were isolated from 10 to 12-week-old male C57BL/6J mice using a collagenase digestion protocol as described, briefly, white fat pads were removed, minced and digested using collagenase for 60-90 min at 37° C. in Krebs-Ringers phosphate HEPES buffer (KRPH) (15 mM HEPES, pH 7.4, 118 mM NaCl, 4.8 mM KCl, 1.2 mM MgSO4, 1.3 mM CaCl2, 1.2 mM KHPO3, 0.1% BSA). The stromal vascular fraction was separated from the adipocytes and cultured using DMEM and differentiated the same as 3T3-L1 adipocytes as described above. For glucose uptake, differentiated 3T3-L1 adipocytes and primary adipocytes are plated at 10,000 cells/well in 96-well plates and fasted overnight with low glucose serum-free medium (DMEM with 0.25% BSA) DMEM and 2-NBDG (Cayman Chemical) was performed as follow: briefly, 3T3-L1 cells were washed twice with warm (37° C.) KRPH buffer, and adipocytes were either untreated or treated with different concentration of CYSTM1 (1 nM, 10 nM, 100 nM and 1000 nM) for 1 h in KRPH buffer containing 400 nM of 2-NBDG. NBDG uptake was measured using a fluorescent microplate reader (Thermo Scientific Varioskan LUX Multimode Microplate Reader).

mouse primary adipocytes = assay: 2-NBDG glucose uptake in mouse primary adipocytes; format: cell-based; details: inhibitor 1 μM; for effect of co-treatment on CYSTM1-induced glucose uptake: primary adipocytes, CYSTM1 1 μM
Method: as §1

[1] = tested on: MIN6 pancreatic beta cell; assay: Insulin secretion in MIN6 cells with GLP-1R antagonist exendin (9-39); format: cell-based, mouse; details: exendin (9-39) 10 nM

Compound: Cc1cccc([C@@H](CO)NC(=O)[C@@H](C)N2Cc3ccc(-c4nc(NC5CCOCC5)ncc4Cl)cc3C2=O)c1 [ERK1/2 inhibitor 1]
- effect of co-treatment on CYSTM1-induced glucose uptake (3T3-L1 adipocytes): blocked
- effect of co-treatment on CYSTM1-induced glucose uptake (mouse primary adipocytes): blocked

Compound: CCn1c(-c2nonc2N)nc2c(C#CC(C)(C)O)ncc(OC[C@H]3CCCNC3)c21 [GSK690693]
- inhibition of CYSTM1-induced increase in glucose uptake (3T3-L1 adipocytes; 3T3-L1 adipocytes, 5 μM, 10 μM, CYSTM1 1 μM (FIG. 8B)): inhibited by the dose-dependent manner
- effect of co-treatment on CYSTM1-induced glucose uptake (3T3-L1 adipocytes): blocked
- inhibition of CYSTM1-induced increase in glucose uptake (mouse primary adipocytes; mouse primary adipocytes, 5 μM, 10 μM, CYSTM1 1 μM (FIG. 8D)): inhibited by the dose-dependent manner
- effect of co-treatment on CYSTM1-induced glucose uptake (mouse primary adipocytes): blocked

Compound: exendin (9-39)
- inhibition of CYSTM1 activity (insulin secretion) by the antagonist ([1]; CYSTM1 10 nM): did not inhibit CYSTM1 activity
- inhibition of glucose-induced insulin secretion of GLP-1 by the antagonist ([1]; GLP-1 10 nM): inhibited

Compound: glucagon-like peptide 1 [GLP-1]
- glucose-induced insulin secretion of GLP-1 in presence of exendin (9-39) ([1]; GLP-1 10 nM): inhibited by exendin (9-39)
